One compound from US8158389B2, “Products and methods for in vivo secretion of monatin” (priority 2005, dated 2012) can be followed below.

Experiment [1] relates to E. coli BL21 DE3. Kind of experiment: Monatin excretion with sodium decanoate, E. coli BL21 DE3 with or without cysH deletion. In kind it is cell-based, Escherichia coli. The settings on record: 2.5 mM sodium decanoate, n = 2. As to the method:
For inoculum, the E. coli strains BL21 DE3 aspC proA pET32 and BL21 DE3 ΔcysH: : aspCproA pET32 were grown overnight at 37° C. and 250 rpm in Luria-Bertani (“LB”) medium with 100 μg/mL ampicillin.
For the experimental treatments, Trp-1+glucose medium, a minimal medium that has been used for increased production of tryptophan in E. coli cells (Zeman et al. Folia Microbiol. 35:200-204, (1990)), was prepared as follows. To 800 mL nanopure water the following reagents were added: 2 g (NH4)2SO4 and 13.6 g KH2PO4. The pH was adjusted to 7.0, the volume was increased to 948 mL, and the medium was autoclaved. Following sterilization, 0.2 g MgSO4.7H2O, 0.01 g CaCl2.2H2O, and 0.5 mg FeSO4.7H2O were ad to the medium in a 1.8 mL volume followed by addition of 0.2 mL of Neidhardt's micronutrient solution. Neidhardt, F. C., et al., “Culture medium for Enterobacteria,” J. Bacteriol. 119:736-746 (1974). Neidhardt's medium includes (per liter): 0.18 g (NH4)6(MO7)24.4H2O, 1.24 g H3BO3, 0.36 g CoCl2.6H2O, 0.12 g CuSO4 (anhydrous), 0.8 g MnCl2.4H2O, and 0.14 g ZnSO4.7H2O. A 50% glucose solution was prepared separately and sterile-filtered. Forty mL of glucose solution and 10 mL of 1 M 3-Morpholinopropanesulfonic acid (“MOPS”) buffer were added to the base medium (950 mL) for a 1 L final volume.
Conditions for the treatments included 250 rpm agitation throughout and 37° C. up to induction, then, 30° C. following induction. At an OD600 nm between 0.44-0.52, induction of the plasmid genes was initiated. At induction, 1.0 mM IPTG, 0.5 mM pyridoxine hydrochloride, and 0.2 mL's of Balch's vitamins were added. Additions of 10 g/L L-tryptophan, 10 g/L sodium pyruvate, 0.04 mM pyridoxal-5′-phosphate (“PLP”) and 0.2% Tween® 20 (polyoxyethylene 20-sorbitan monolaurate) were made 3.0 hours following induction. At 3 hours after the initial feeding of pyruvate, another 10 g/L of sodium pyruvate was added to each flask. Some treatments included 2.5 mM sodium decanoate (or sterile, distilled water for the 0 mM decanoate treatment) addition at 3.0 hours following induction.

The subject of experiment [2] is E. coli BL21 DE3. Kind of experiment: Preliminary study: novobiocin tolerance after sodium decanoate addition. It counts as cell-based, Escherichia coli. The following applies: 2.5 mM sodium decanoate added to the medium. The source says: This was taken as evidence that acrAB genes are induced with sodium decanoate addition and conferred resistance to novobiocin. Rosenberg, E. Y., et al., Molecular Microbiol. 48:1609-1619, (2003).

Setting [3] is: E. coli BL21 DE3 aspC proA pET32.
Where [4] appears, read: E. coli BL21 DE3 ΔcysH::aspC proA pET32.

Turning to `CCCCCCCCCC(=O)[O-].[Na+]` [sodium decanoate], in experiment [1] (setting [3]), the “Monatin/dry cell wt., 24 hours” value is reported as 70.9 mg/g; the “Monatin/dry cell wt., 30 hours” value came to 75.0 mg/g; the “Monatin/dry cell wt., 48 hours” value is on record as 44.0 mg/g. Also, in experiment [1] (setting [4]), the “Monatin/dry cell wt., 24 hours” value is 115.0 mg/g; the “Monatin/dry cell wt., 30 hours” value is given as 103.1 mg/g; the “Monatin/dry cell wt., 48 hours” value came to 73.3 mg/g. In addition, the tolerance to novobiocin in experiment [2] was 80 to 160 µg/mL.
